Measurements taken from US20060052459A1, “Antifungal medicaments comprising arylamidine derivatives” (priority 2002, published 2006).

Key:
[1] = system: Aspergillus fumigatus strain IP 864.64; experiment: In vitro antifungal growth inhibition on microtitre plates (optical density 590 nm), compounds alone or as mixtures (Wadley method); assay type: cell-based; details: second study
Experimental: (§1) The following fungi were used for this study: Candida albicans strains IP 48.72 (ATCC 10231) and Aspergillus fumigatus strain IP 864.64 obtained from the Collection Nationale de Cultures de Microorganismes (CNCM) of the Institut Pasteur. The strains are cultured on Yeast Extract-Peptone-Dextrose (YEPD) agar medium comprising 0.5% yeast extract, 0.5% bactopeptone, 2% glucose and 2% agar at 30° C. and in the dark.
(§2) All these compounds were prepared in a DMSO solution at a final concentration of 100 mg/ml. The stock solutions are stored at −20° C. up to the time of use.
(§3) The trials are carried out in RPMI 1640 medium with no sodium bicarbonate, but with L-glutamine buffered with 0.165 mol per litre of 3-[N-morpholino]propanesulphonic acid (MOPS), enriched (<>) or otherwise (<>) with 2% glucose. The pH of this medium is adjusted to 7.0. The medium is sterilized by filtration (0.22 μm) and stored at 4° C. up to the time of use.
(§4) All the antifungal tests are carried out on microtitre plates. The initial suspensions of spores are prepared in a sterile solution containing 0.85% NaCl, supplemented with Tween 80 at 0.01%. These initial suspensions are then diluted in the culture medium (RPMI 1640 enriched or otherwise with 2% glucose) to a final concentration of 10^4 spores per ml. The measurements of viability of each inoculum are verified by subcultures of a volume of 300 μl on YEPD agar medium.
(§5) The antifungal compounds are tested in a range of concentrations ranging from 0.026 to 100 μg of active ingredient/ml. These antifungal compounds are then diluted in RPMI 1640 medium enriched or otherwise with 2% glucose. A final DMSO concentration of 0.2% is used throughout the measurements. Each trial is carried out on a series of dilutions of antifungal compounds, in duplicate. The antifungal dilutions (0.1 ml) and the fungal inoculum (0.1 ml) are added to each of the wells of the microtitre plate. The plates are then read with a spectrophotometer (ELX 800UV Bio-Tek Instruments, Inc) at a wavelength of 590 nm. The plates are read immediately after (t=0) and after 48 hours' incubation at 30° C. and in the dark. The optical density values obtained are correlated with fungal growth between the times t=0 and t=48 hours. The optical density values are used to calculate the percentage inhibition of growth for each concentration of antifungals by comparison with the control. The values are then used to plot a dose-response curve and the EC50 value is determined for each fungus and each compound with the aid of the Grafit 5.0® software (Erithacus software Ltd).
(§6) The method which was used to measure the type of interaction existing between the antifungal compounds in the form of mixtures is the Wadley method.
(§7) In the Wadley approach, the dose-response curve for each of the compounds A and B, and for the mixture AB, is constructed. The EC50 is calculated for each compound taken individually and for the mixture. If a and b are the absolute quantities of the compounds A and B in the mixture (a=1, b=1, a+b=2 under our conditions), the expected effective concentration (EC50exp) may be calculated in the following manner: EC50exp=(a+b)/[a/EC50A)+b/(EC50B)
(§8) The Wadley approach may be used to estimate the type of interaction existing between the fungal compounds, regardless of their concentration. Its reliability is not dependent on the percentage inhibition. The type of interaction between two compounds is given by the level of interaction (LI) which corresponds to the ratio between the expected effective concentration (EC50exp) and that observed (EC50obs) of the mixture. The nature of the interaction obtained by the Wadley formula is presented in Table 1 (see U. Gisi, Synergistic interaction in fungicide mixtures, 1996. Phytopathology 86, 1273-1279) below.
(§9) The experimental conditions are the same as previously described.

[2] = system: Candida albicans strains IP 48.72 (ATCC 10231); experiment: as above; assay type: cell-based; details: second study
Experimental: as §1, §2, §3, §4, §5, §6, §7, §8, §9

EC50 ([1]; Aspergillus fumigatus, IP864.64, 48 h, strain IP 864.64, RPMI 1640 medium enriched with 2% glucose, 48 hours at 30° C., read-out: EC50): 0.088 µg/mL | EC50 ([2]; Candida albicans, ATCC10231, 48 h, strain IP 48.72, RPMI 1640 medium enriched with 2% glucose, 48 hours at 30° C., read-out: EC50): 0.205 µg/mL
Structure (SMILES): CCN(C)C=Nc1cc(C)c(Oc2ccc(C#N)c(C(F)(F)F)c2)cc1C [Compound I.2, N-ethyl-N-methyl-N′-[4-(4-cyano-3-trifluoromethylphenoxy)-2,5-dimethylphenyl]imidoformamide]
efficacy in vitro compared with compounds I.1 and II.2 ([1]; enriched medium): twice higher | efficacy in vitro compared with compounds I.1 and II.1 ([2]; enriched medium): better efficacy
